# Test system: mice
# Assay: Cytokine induction (IL-6, IP-10) in mice after intravenous administration
# Type: in vivo
# Parameters: IL-6 / IP-10: unit not given here
# Conditions: 0.5 mpk, 6 hours
# Description: The introduction of foreign material into a mammalian body induces an innate immune response that promotes cytokine production. Such immune responses to, for example, nanoparticle compositions including therapeutic and/or prophylactics, are undesirable. The induction of certain cytokines is thus measured to evaluate the […] of nanoparticle compositions. The concentrations of various cytokines in mice upon intravenous administration of nanoparticle compositions presented in Table 1A at a dosage of 0.5 mpk was measured at 6 hours. The standard MC3 formulation and a PBS control were also tested. As is evident in Table 7, IL-6 induction was highest for compositions including Compounds 1, 3, 9, 19, and 26, while IP-10 induction was highest for compositions including Compounds 3, 4, 7, 20, and 26. IL-6 induction was lowest for compositions including Compounds 4, 11, 12, and 28. IP-10 induction was lowest for compositions including Compounds 10, 11, 12, 13, 15, 17, and 18.
# The expression of hEPO and cytokine induction in mice intravenously administered a nanoparticle composition at a dose of 0.5 mpk were measured at 3, 6, and 24 hours. […] The expression of hEPO in mice intramuscularly administered a nanoparticle composition from Table 1B at a dose of 0.01 mpk were measured at 3, 6, and 24 hours. […] (see also FIG. 9.)
Structure (SMILES),IP-10,IL-6
"CCCCCCCCCOC(=O)CCCCCCCN(CCCCCCCC(=O)OC(CCCCCCCC)CCCCCCCC)CCOC(C)=O [Compound 9, Heptadecan-9-yl 8-((2-acetoxyethyl)(8-(nonyloxy)-8-oxooctyl)amino) octanoate]",366.53,–
"CCCCCCCCCCCCCCCCCCN(CCO)CCCCCCCC(=O)OC(CCCCCCCC)CCCCCCCC [Compound 1, Heptadecan-9-yl 8-((2-hydroxyethyl)(octadecyl)amino)octanoate]",687.14,–
"CCCCCCCCCOC(=O)CCCCCCCN(CCCCCCCC(=O)OC(CCCCCCCC)CCCCCCCC)CCN(C)C [Compound 14, Heptadecan-9-yl 8-((2-(dimethylamino)ethyl)(8-(nonyloxy)-8-oxooctyl)amino)octanoate]",621.49,75.29
"CCCCCCCCCOC(=O)CCCCCCCN(CCCCCCCC(=O)OC(CCCCCCCC)CCCCCCCC)CC(O)CC (stereo not drawn) [Compound 13, Heptadecan-9-yl 8-((2-hydroxybutyl)(8-(nonyloxy)-8-oxooctyl)amino) octanoate]",–,29.07
"CCCCCCCCCOC(=O)CCCCCCCN(CCCCCCCC(=O)OC(CCCCCCCC)CCCCCCCC)CC(C)O (stereo not drawn) [Compound 10, Heptadecan-9-yl 8-((2-hydroxypropyl)(8-(nonyloxy)-8-oxooctyl)amino) octanoate]",–,88.81

# Results, then the compound that gave them:
IP-10,IL-6,Structure (SMILES)
–,138.43,"CCCCCCCCCOC(=O)CCCCCCCN(CCCCCCCC(=O)OC(CCCCCCCC)CCCCCCCC)CCOCCN(C)C [Compound 17, Heptadecan-9-yl 8-((2-(2-(dimethylamino)ethoxy)ethyl) (8-(nonyloxy)-8-oxooctyl)amino)octanoate]"
153.36,23.57,"CCCCCC/C=C\COC(=O)CCCCCCCN(CCO)CCCCCCCC(=O)OC/C=C\CCCCCC [Compound 139, Di((Z)-non-2-en-1-yl) 8,8′-((2-hydroxyethyl)azanediyl)dioctanoate]"
–,64.65,"CCCCCCCCCOC(=O)CCCCCCCN(CCCCCCCC(=O)OC(CCCCCCCC)CCCCCCCC)CCOC [Compound 15, Heptadecan-9-yl 8-((2-methoxyethyl)(8-(nonyloxy)-8-oxooctyl)amino)octanoate]"
887.91,28.69,"CCCCC/C=C\C/C=C\CCCCCCCCN(CCO)CCCCCCCC(=O)OCCCCCCCCC [Compound 136, Nonyl 8-((2-hydroxyethyl)((9Z,12Z)-octadeca-9,12-dien-1-yl)amino)octanoate]"
206.75,32.01,"CCCCCCCCCOC(=O)CCCCCCCN(CCCCCCCC(=O)OC(CCCCCCCC)CCCCCCCC)CCCOC [Compound 16, Heptadecan-9-yl 8-((3-methoxypropyl)(8-(nonyloxy)-8-oxooctyl)amino) octanoate]"
1072.04,327.15,"CCCCCCCCCCCOC(=O)CCCCCN(CCO)CCCCCC(=O)OCCCCCCCCCCC [Compound 141, Diundecyl 6,6′-((2-hydroxyethyl)azanediyl)dihexanoate]"
976.50,90.54,"CCCCCCCCCOC(=O)CCCCCCCN(CCCCCCCC(=O)OC(CCCCCCCC)CCCCCCCC)C1CCCCC1O (stereo not drawn) [Compound 22, Heptadecan-9-yl 8-((2-hydroxycyclohexyl)(8-(nonyloxy)-8-oxooctyl)amino)octanoate]"

# — patent US12404232B2, “Compounds and compositions for intracellular delivery of therapeutic agents” (ModernaTX, Inc., priority 2015, dated 2025)
